These are literature values, as cited in patent US20030203047A1 (priority 2002, published 2003).

For data set [1] the following is noted: supplementation.
The test system of the next data set is young female rats. The note with it: constant infusion.
The test system of the next data set is androgen receptor. As to conditions: seminal vesicle; relative to the unreduced steroid.
The target in the next data set is T1, aromatase (Homo sapiens, UniProt P11511).
T1 sequence (P11511 1-503): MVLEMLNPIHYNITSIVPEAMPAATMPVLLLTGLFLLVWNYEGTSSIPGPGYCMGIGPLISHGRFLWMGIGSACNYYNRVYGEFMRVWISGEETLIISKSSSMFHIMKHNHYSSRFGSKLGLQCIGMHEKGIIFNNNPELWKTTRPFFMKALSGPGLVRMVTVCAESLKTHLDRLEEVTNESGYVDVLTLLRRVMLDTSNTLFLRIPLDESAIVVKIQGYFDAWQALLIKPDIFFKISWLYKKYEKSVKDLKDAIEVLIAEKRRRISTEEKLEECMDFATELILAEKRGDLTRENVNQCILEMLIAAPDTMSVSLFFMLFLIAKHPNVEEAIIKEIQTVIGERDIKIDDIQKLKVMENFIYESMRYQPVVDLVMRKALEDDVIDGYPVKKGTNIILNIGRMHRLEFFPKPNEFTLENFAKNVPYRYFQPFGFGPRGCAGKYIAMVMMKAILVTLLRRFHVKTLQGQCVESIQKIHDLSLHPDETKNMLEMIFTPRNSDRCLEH
The note with it: compared with chrysin, AG and ANG.

The test system of another data set is healthy young men. The note with it: 300 mg/wk for six weeks.
The test system of a further data set is hypogonadal men. As to conditions: for waking erection: Asian group of hypogonadal men; for sexual interest and activity, spontaneous erection: Caucasian group of hypogonadal men.
For data set [2] the following is noted: in vivo.
The subject of another data set is patients on dialysis. The note with it: compared with placebo.
The conditions of data set [3]: supplementation. This is another data set of the same source.
The test system of the next data set is HIV-infected men. As to conditions: pharmacological doses.
The conditions of data set [4]: for plasma testosterone: panhypopituitarism.
Data set [5] concerns prostate and seminal vesicle weights; levator ani muscles.

Each structure is given as a SMILES string. Read-outs that look alike come from different tables or passages of the source.

`C[C@]12CCC(=O)C=C1CC[C@@H]1[C@@H]2CC[C@]2(C)C(=O)CC[C@@H]12` [4-androstenedione]: the serum testosterone entry in [1] was “elevations”.
Consider `C[C@]12CC[C@H]3[C@@H](CC=C4C[C@@H](O)CC[C@@]43C)[C@@H]1CC[C@@H]2O` [5-androstenediol], for which the “proportion of protein in the body composition” value with young female rats is listed as “increased”.
In the case of `C[C@]12CCC(=O)C[C@@H]1CC[C@@H]1[C@@H]2CC[C@]2(C)[C@@H](O)CC[C@@H]12` [DHT, 5α-androstan-17β-ol-3-one], in the data set on androgen receptor, the “change of affinity to the androgen receptor on 5-alpha-reduction” value is on record as “increasing by seven- to eight-fold”.
Take `COc1ccc(-c2coc3cc(O)cc(O)c3c2=O)cc1` [Biochanin A, 5,7-dihydroxy-4′-methoxyisoflavone]: the “aromatase inhibition (in words)” value at aromatase is given as “to a lesser degree”.
Regarding `CCCCCCC(=O)O[C@H]1CC[C@H]2[C@@H]3CCC4=CC(=O)CC[C@]4(C)[C@H]3CC[C@]12C` [TE, testosterone enanthate], the “circumferences with significant increases (of fifteen)” value in the data set with healthy young men is “shoulders”. For the same molecule, in the data set on hypogonadal men, the waking erection result is listed as “increased”; the “sexual interest and activity, spontaneous erection” value was “significant increases”.
On to `C[C@]12CC[C@H]3[C@@H](CCC4=CC(=O)CC[C@@H]43)[C@@H]1CC[C@@H]2O` [nandrolone, 19-nor-testosterone], for which, in data set [2], the “adverse finding associated with use” value is “azoospermia” and the “decrease in HDL-cholesterol” value is 25-27%. The lean body mass entry with patients on dialysis is reported as “increased significantly”. Moreover, in the data set with young female rats, the energy expenditure entry was “increased”.
Turning to `C[C@]12CC[C@H]3[C@@H](CCC4=C[C@@H](O)CC[C@@]43C)[C@@H]1CC[C@@H]2O` [4-androstenediol], the serum testosterone entry in [1] is reported as “elevations”. Moreover, in data set [3], the “urine testosterone concentration relative to 4-androstenedione” value is recorded as 10 fold.
For the molecule `CCCCCCCCCC(=O)O[C@H]1CC[C@H]2[C@@H]3CCC4=CC(=O)CC[C@@H]4[C@H]3CC[C@]12C` [nandrolone decanoate], in the data set with healthy young men, the “circumferences with significant increases (of fifteen)” value was “shoulders and chest”. Also, the “total weight, lean body mass, body cell mass, muscle size and strength” value in the data set on HIV-infected men was “significant gains”.
Regarding `C[C@]12CC[C@H]3[C@@H](CCC4=CC(=O)CC[C@@]43C)[C@@H]1CC[C@@H]2O` [Testosterone], the “proportion of protein in the body composition” value with young female rats is reported as “increased”.
Take `C[C@]12CC[C@H](O)CC1=CC[C@@H]1[C@@H]2CC[C@]2(C)C(=O)CC[C@@H]12` [DHEA, dehydro-epiandrosterone]: in data set [4] (50 mg dose), the plasma testosterone result is reported as “levels similar to those observed in young women”. In [4] (50 mg or 200 mg), the “increase of plasma delta 4-androstenedione” value is “significant and dose dependent”; the “plasma estrogens, particularly estradiol” value is “significant and dose dependent increase”. Besides, in data set [4] (200 mg dose), the plasma testosterone result was “slightly below the levels observed in normal men”. The “increase of plasma dihydrotestosterone levels” value in data set [4] (both doses) is given as “small”.
For `C[C@@H]1CC2=CC(=O)CC[C@@H]2[C@H]2CC[C@]3(C)[C@@H](O)CC[C@H]3[C@@H]21` [MENT, 7α-methyl-19-nor-testosterone], in the data set with hypogonadal men, the waking erection result is “increased”; the “sexual interest and activity, spontaneous erection” value is reported as “significant increases”. Also, the “androgenic potency relative to testosterone” value in data set [5] (measured by prostate and seminal vesicle weights) was “four- to five-times”. The “anabolic potency relative to testosterone” value in data set [5] (measured in the levator ani muscles) was “ten-times”.
